We go through three compounds from patent publication US20240325565A1, “COMBINATION TREATMENT FOR SOLID TUMORS INCLUDING A STING AGONIST AND A CCR2 ANTAGONIST” (University of Pittsburgh - Of the Commonwealth System of …, priority 2023, published 2024).

The conditions of data set [1]: cited from earlier work.
Data set [2] has as its system Panc02 tumors. The data set can be described thus: Quantification of tumor-infiltrating immune cells by flow cytometry. The data set is classed as in vivo, mice. To be noted: i.v. every three days for three times. The protocol:
Quantification of tumor-infiltrating lymphocytes by flow cytometry. Syngeneic C57BL/6 mice bearing Panc02 tumors received various treatments (saline, free GEM, free PF, free GEM+PF, PGEM, and PGEM/PF) via i.v. administration every three days for three times. Tumors were collected at 24 h following the last treatment. Single cell suspensions were prepared according to previous literature. See Wan, Z., et al., Science Advances, 7 (50), eabj4226 (2021). Then the cells were stained with various antibodies (Table 1) for flow cytometry analysis. For intracellular cytokine (IFN-γ and GZB) staining, cells were stimulated with PMA (100 ng/mL) and lonomycin (500 ng/mL) for 5 h in the presence of Monensin. Cells were fixed/permeabilized using the BD Cytofix/Cytoperm kit prior to cell staining. Then, the fixed/permeabilized cells were suspended in residual Intracellular Staining Perm Wash Buffer and a predetermined optimum concentration of fluorophore-conjugated antibody of interest was added (e.g. PE anti-IFN-γ) for 30 minutes. The data were analyzed using FlowJo software (available from Becton Dickenson & Company pf Ashland, OR). The percentage of cytokine (IFN-γ or GZB)-producing NK and CD8^+ T cells was gated under total NK and CD8^+ T cells, respectively, which represents the percentage of total NK or CD8^+ T that are IFN-γ or GZB positive.
Background: A flow cytometer gives signals particle by particle.

Data set [3] in a line: Release of PF from PGEM/PF micelles (dialysis method). To be noted: 37° C., PBS with 0.5% tween 80, 24 h. The data set is classed as physicochemical. The protocol:
Release of PF from PGEM/PF micelles. The release of PF from PGEM/PF micelles was examined at 37° C. via a dialysis method with free PF as a control. PF-loaded PGEM micelles was transferred into a dialysis bag with MWCO of 3500 Da, which was then incubated in 50 mL PBS with 0.5% (w/v) tween 80 under gentle shaking. At specific time intervals, all the PBS solution outside the dialysis bag was withdrawn and replaced with another 50 mL of fresh solution. The PF concentrations in the solution were determined by HPLC.

Data set [4] relates to Panc02 cells. The data set can be described thus: MTT cytotoxicity assay. Format: cell-based, Murine. The conditions noted are these: 96 h. The protocol: MTT assay. Panc02 cells were seeded in 96-well plates at a density of 1500 cells/well with 100 μL of complete culture medium (DMEM with 10% FBS and 1% streptomycin/penicillin). After overnight incubation, Panc02 cells were treated with various concentrations of saline, free PF, free BMS, free Bind, free GEM, free GEM+PF, PGEM, PGEM/PF, PGEM/BMS, and PGEM/Bind micelles. After 96 h, the cytotoxicity was determined by MTT assay. The absorbance of each well was measured at 590 nm and the cell viability was determined via the following formula: (ODtreated−ODblank)/(ODcontrol−ODblank)×100%.

The test system of data set [5] is Panc02 tumors. Briefly: In vivo anti-tumor study in Panc02 tumor-bearing mice. The conditions noted are these: i.v. three times at an interval of three days; for anti-tumor activity of PGEM loaded with CCR2 inhibitor: 10 mg/kg for CCR2 inhibitor; for inhibition of Panc02 tumor growth (therapeutic efficacy): GEM: 20 mg/kg, PF: 10 mg/kg. The protocol:
In vivo anti-tumor study. The antitumor effect was evaluated in syngeneic mice bearing Panc02 tumors. In brief, 1×10^5 Panc02 cells were inoculated into the right flank of female C57BL/6 mice. When the tumor volume reached ˜50 mm^3, the mice started to receive different treatments. […]. In a separate study, the synergistic tumor inhibition effect of PF and GEM was evaluated by intravenously injecting saline, free GEM, free PF, free GEM+PF, PGEM, and PGEM/PF (GEM: 20 mg/kg; PF: 10 mg/kg), respectively, into the Panc02 tumor-bearing mice. These treatments were also performed three times at an interval of three days. The tumor volumes and body weights were continuously monitored. At the endpoint, the tumor tissues and major organs were fixed in 10% formalin and dehydrated. Then they were embedded in paraffin and sectioned, followed by H&E staining with for histopathological examination. The biochemical parameters, including WBCs, RBCs, Hb, AST, ALT, and creatinine, were evaluated for safety profiles. The effect of PGEM/PF on the inhibition of lung metastasis of pancreatic cancer was also evaluated. A pulmonary metastasis model of pancreatic cancer was established by injecting KPC cells via tail vein. On day 10 following tumor cell inoculation, mice were i.v. administered with saline, free GEM+PF, PGEM, and PGEM/PF, respectively. The treatment was performed at day 10, day 14, and Day 18, and the mice were sacrificed at day 20.

The test system of data set [6] is Panc02 cells. Briefly: γH2AX foci immunofluorescence (DNA double strand break marker). The data set is classed as cell-based, Murine. The protocol: (§1) Immunofluorescence Microscopy. Panc02 cells were seeded on chamber slides and treated with saline, free GEM, PGEM micelles, and PVD micelles, respectively. For all immunofluorescence staining, cells were washed in PBS, fixed in 4% formaldehyde/PBS for ten minutes at room temperature (RT) and permeabilized in 0.25% Triton/PBS for 20 minutes at RT. Blocking was performed in 5% BSA/0.1% Triton/PBS for 30 minutes, followed by incubation with primary antibodies in blocking buffer for one hour at 37° C. incubator. Cells were washed in PBS and incubated with secondary antibodies in blocking buffer for one hour at RT, followed by washing and mounting on coverslips using ProLong Gold antifade reagent with DAPI. Cells were imaged using confocal microscope at the specified magnification. For picogreen-cGAS staining, cells were incubated with pico488 DNA quantification reagent for 2 hours at 37° C. For γH2AX staining, permeabilized cells were blocked in Serum-free DAKO Protein Block for one hour at RT. Cells were incubated in primary antibody (γH2AX, 1:500; anti-HA, 1:100) in DAKO antibody (available from Agilent of Santa Clara, CA) diluent at 4° C. overnight on a rocker platform.

The next data set concerns cGAS in Panc02 cells. Briefly: Picogreen staining and immunofluorescence for cGAS-bound micronuclei. The conditions noted are these: compared with control and PVD-treated groups. Format: cell-based, Murine. The protocol:
as §1

For data set [7], the system named is Panc02 cells. Briefly: qRT-PCR in cultured Panc02 cells. Format: cell-based, Murine. The protocol: qRT-PCR. Panc02 cells grown in six-well plates were treated with saline, free GEM, PGEM micelles, and PVD micelles, respectively, for 48 h. Then, RNA was isolated using the PureLinkTM RNA kit (InvitrogenTM available from Thermo Fisher Scientific) and reverse transcribed using the High-Capacity cDNA Reverse Tran--scription Kit (available from Applied Biosystems/Thermo Fisher Scientific) based on the manufacturer's guidelines. qPCR was performed using Power SYBR Green PCR MasterMix (Applied Biosystems) in a QuantStudio 3 Real-Time PCR System (Applied Biosystems). In a separate study, Panc02 cells grown in six-well plates were treated with PGEM for 72 h. One day after adding PGEM into the wells, control siRNA (siNC) or STING siRNA ([…]) was added into the wells without changing the medium, and incubated for 48 h. Then the RNA was extracted, and CCL2, CCL7 and ISG15 expression levels were detected as described above. In another study, whether CCL2, CCL7 and ISG15 were induced by type I IFNs was evaluated. Panc02 cells grown in six-well plates were treated with PGEM for 72 h. One day after adding PGEM into the wells, isotype control (10 μg/mL) or IFNAR1 antibody (10 μg/mL) was added into the wells without changing the medium, and incubated for 48 h. Then, the RNA was extracted subjected to qRT-PCR analysis of the mRNA expression levels of CCL2, CCL7 and ISG15.
On the technique in general: In qPCR the cycle at which signal appears reflects the starting amount.

The next data set has as its system Panc02 tumor tissues. Briefly: Bulk RNA-Seq of Panc02 tumor tissues. The data set is classed as in vivo, mice. The protocol: Bulk RNA-Seq Analysis. The Panc02 tumor-bearing mice were intravenously injected with saline, GEM and PGEM once every three days for 3 times, respectively. One day after last injection, the tumors were harvested for RNA sequencing (RNA-seq), which was performed by the Health Sciences Sequencing Core at Children's Hospital at University of Pittsburgh. RNA-Seq libraries were sequenced as 75-bp paired-end reads at a depth of ˜73-77 million reads per sample. Reads were mapped to the mouse genome (GRCm38) using STAR Aligner 2.6.1a. Gene expression quantification and differential expression analysis was performed on Saline, GEM, and PGEM treated tumor samples using RSEM 1.3.1 and Cuffdiff of Cufflinks 2.2.1. Volcano plots were generated to show the overall differential expression between pairwise comparisons among these three groups, where the x-axis indicates the log-transformed fold changes (log 2FC) and the y-axis indicates the corresponding negative log-transformed p-values (−log10(p-value)). The Gene Set Enrichment Analysis (GSEA), via GSEA software available from Broad Institute, Inc. of Cambridge, MA, was further performed based on the gene lists ranked by the log 2FC among three groups.

Data set [8] concerns STING pathway in Panc02 cells. The data set can be described thus: Western blotting of STING pathway-related proteins. The data set is classed as cell-based, Murine. The protocol:
Western blotting. Western blotting was performed to evaluate the STING activation in cultured Panc02 cells. Cells grown in six-well plates with 80% confluency were treated with saline, free GEM, PGEM micelles, and PVD micelles, respectively, for 48 h. Then, the cultured Panc02 cells were washed twice with pre-cooled PBS and lysed in Pierce™ RIPA buffer (available from Thermo Fischer Scientific of Pittsburgh, PA) for 30 min in 4° C. Protein concentrations were determined by BCA method, and equal amounts of total protein lysate were resolved on a 10% SDS-PAGE and subsequently transferred to a nitrocellulose membrane. Membranes were blocked with 5% non-fat milk in PBS for 1 h prior to incubation with various antibodies targeting IRF3, P-IRF3, STING, P-STING, and Cyclin B dissolved in PBST (DPBS with 0.1% Tween 20) overnight at 4° C. The blots were washed with PBST and then probed with goat antirabbit IgG for 1 h at room temperature followed by chemiluminescence detection by SuperSignal™ West Fento Maximum Sensitivity Substrate (available from Thermo Fischer Scientific). Q-Actin or GAPDH was used as a loading control.
In general terms: Immunoblotting shows a protein as a band on a membrane.

Setting [9] is: Cuffdiff P<0.05, i.v. once every three days for 3 times.

As for `O=C(NCC(=O)N1CC[C@H](N[C@H]2CC[C@@](O)(c3ccc(-c4ncccn4)cn3)CC2)C1)c1cccc(C(F)(F)F)c1` [PF-04136309, N-(2-((S)-3-(((1r,4S)-4-hydroxy-4-(5-(pyrimidin-2-yl)pyridin-2-yl)cyclohexyl)amino)pyrrolidin-1-yl)-2-oxoethyl)-3-(trifluoromethyl)benzamide], in data set [1], the bioavailability entry is recorded as “low bioavailability” and the solubility entry is “poor solubility”. The “percentage of MDSCs and TAMs in tumors” value in the data set on Panc02 tumors [2] is on record as “decrease”. The “PF diffused out of dialysis bag within 24 h” value in data set [3] is given as “over 95%”. In addition, the cytotoxicity result in the data set with Panc02 cells [4] is on record as “slight cytotoxicity”. In the data set with Panc02 tumors [5], the “anti-tumor activity of PGEM loaded with CCR2 inhibitor” value is “best combination effect” and the “inhibition of Panc02 tumor growth (therapeutic efficacy)” value is on record as “modest effect”. In addition, in the data set on Panc02 tumors [5] (listed as PF), the “anti-tumor activity of PGEM loaded with CCR2 inhibitor” value is listed as “best results”.
Regarding `CC(=O)N[C@@H]1C[C@H](NC(C)(C)C)CC[C@@H]1N1CC[C@H](Nc2ncnc3cc(C(C)(C)C)nn23)C1=O` [BMS813160, N-[(1R,2S,5R)-5-[(1,1-dimethylethyl)amino]-2-[(3S)-3-[[7-(1,1-dimethylethyl)pyrazolo[1,5-a]-1,3,5-triazin-4-yl]amino]-2-oxo-1-pyrrolidinyl]cyclohexyl]-acetamide], in [1], the bioavailability result was “low bioavailability” and the solubility entry was “poor solubility”.
For the compound `Nc1ccn([C@@H]2O[C@H](CO)[C@@H](O)C2(F)F)c(=O)n1` [GEM, Gemcitabine], the “formation of γH2AX foci” value in the data set with Panc02 cells [6] is reported as “induced”. Moreover, the “signals of cGAS-bound micronuclei” value with cGAS in Panc02 cells is reported as “significantly increased”. Moreover, the “CCL2, CCL7 and ISG15 expression” value in the data set on Panc02 cells [7] is reported as “similarly induced”. In the data set with Panc02 tumor tissues (setting [9]), this compound gave a genes significantly downregulated of 489 genes and a genes significantly upregulated of 416 genes. In addition, in the data set on Panc02 tumor tissues (mouse, in vivo), the “CCL2 and CCL7 gene expression (RNAseq)” value was “upregulation”; the “ISG15 expression (RNAseq)” value is on record as “upregulated”. The “IRF3 and STING phosphorylation” value in [8] (48 h) is on record as “significantly induced”. For the same compound, the “normalized protein levels of pIRF3 and pSTING” value in data set [8] (compared with saline and PVD polymer-treated groups) was “significantly higher”. The “inhibition of Panc02 tumor growth (therapeutic efficacy)” value in the data set on Panc02 tumors [5] is “modest effect”.
